Test results: US10471063B2, “Drug combination of PDE3/PDE4 inhibitor and muscarinic receptor antagonist” (VERONA PHARMA PLC, priority 2013, dated 2019)
Where two headings read alike, the source gives them in different places. Marks after values point to notes of the source that are not given here.

How the values were obtained:
[1] = tested on: human isolated bronchial preparations; experiment: Inhibition of EFS (10 Hz)-induced contraction of human isolated bronchial rings; format: cell-based
Method: Regions of macroscopically normal lungs were taken from uninvolved areas resected from 24 subjects (11 male and 13 female, 60.1±1.6 years old) undergoing lobectomy surgery for lung cancer, but without a history of chronic airway disease.
Airways were immediately placed into oxygenated Krebs-Henseleit buffer solution (KH) (mM: NaCl 119.0, KCl 5.4, CaCl2 2.5, KH2PO4 1.2, MgSO4 1.2, NaHCO3 25.0, glucose 11.7; pH 7.4) containing the cyclooxygenase (COX) inhibitor indomethacin (5.0 μM), and transported at 4° C. from the “Regina Elena National Cancer Institute” or the “Sant' Andrea Hospital” to the Respiratory Research Laboratory in the Surgery and Medicine Faculty of “Tor Vergata University”, Rome, Italy. None of the subjects were chronically treated with theophylline, β2-agonists or glucocorticosteroids. Serum IgE levels determined on the day of surgery were in the normal range. Preoperative lung function parameters were generally normal and there were no signs of respiratory infections.
In the laboratory, airways were dissected from connective and alveolar tissues. Then, segmental bronchi were isolated and stored overnight in KH buffer solution at refrigeration temperature. […]
Human bronchi were placed in organ baths containing KH buffer solution (37° C.) medicated with indomethacin (5.0 μM), bubbled with 95% O2/5% CO2 and suspended under passive tension (0.5-1.0 g). […] Changes in isometric tension were measured with a transducer (Fort 10 WPI, Basile, Instruments, Italy) and the tissue responsiveness was assessed by acetylcholine (100 μM); when the response reached a plateau, rings were washed three times and allowed to equilibrate for 45 min. […]
Bronchial contractile tension induced by EFS was measured as a percentage of control bronchi, and polynomial curves were constructed by fitting models of biological data using nonlinear regression as described elsewhere (Motulsky and Christopoulos, 2004). […]

[2] = tested on: human isolated bronchial rings; experiment: Relaxation of human isolated bronchial rings pre-contracted with acetylcholine (EC70); synergy analysis (Bliss Independence, Berenbaum); format: cell-based
Text: In the laboratory, airways were dissected from connective and alveolar tissues. Then, segmental bronchi were isolated and stored overnight in KH buffer solution at refrigeration temperature. […] Bronchial rings were mounted on hooks in the organ baths where one hook was attached with threaded to a stationary rod and the other hook tied with thread to an isometric force displacement transducer. […] Then, concentration response curves were constructed to test individual compound RPL554 and muscarinic receptor antagonist alone; as well as RPL554 administered in combination with a muscarinic receptor antagonist in order to produce isobolar graphs as described elsewhere (Greco et al., 1995; Tallarida, 2001; Goldoni and Johansson, 2007; Boik et al., 2008; Lee, 2010). […] Goodman et al., 2008). E/Emax was expressed as percentage of Emax elicited by the contractile agents; […] The analysis of the potential synergism between RPL554 plus muscarinic receptor antagonist was measured by applying the Berenbaum method, the Bliss Independence (BI) criterion and the Loewe Additivity (LA) model through curved isoboles (Berenbaum, 1977; Greco et al., 1995; Grabovsky and Tallarida, 2004; Tallarida, 2006; Goldoni and Johansson, 2007; Tallarida and Raffa, 2010). […] Lee, 2010). The BI theory for two agents is expressed by the following equation: E(x,y)=Ex+Ey-(Ex*Ey), where E is the fractional effect, and x and y are the concentrations of two compounds in a combination experiment. If the combination effect is higher than the expected value from the above equation, the interaction is considered synergistic, while if this effect is lower, the interaction is antagonistic. […] In this study, the BI equation was characterized by X=RPL554 and Y=muscarinic receptor antagonist. […] The additive response (Eab) for each dose combination with respect to B was then calculated by insertion of B into EB=f(B). The difference between the observed relaxation response to the combination doses and the additive response was calculated and analysed using a one sample t-test and for multiple comparisons, the probability was adjusted for multiple comparisons using a Bonferroni correction. For illustrative purposes, the 1:1 dose combinations were analysed for synergy. […] Tallarida, 2001; Goldoni and Johansson, 2007; Boik et al., 2008; Lee, 2010).

[3] = tested on: passively sensitized human isolated bronchi; experiment: Contraction induced by histamine in passively sensitized human bronchi pre-incubated with RPL554; format: cell-based
Method: Human isolated bronchial rings were rotated overnight at room temperature in tubes containing KH buffer solution in the absence (non-sensitized control rings) or the presence of 10% vol^−1 sensitizing serum (sensitized rings) as described elsewhere (Watson et al., 1997; Rabe, 1998). Subjects suffering from atopic asthma (total IgE>250 U ml^−1 specific against common aeroallergens) during exacerbation provided signed consent for serum donation. Sera was prepared by centrifugation of whole blood and sera samples were frozen at −80° C. in […] until required.
The next morning, after removal of adhering alveolar and connective tissues, bronchial rings were transferred into an organ bath containing KH buffer (37° C.) and continuously gassed with a 95% O2/5% CO2. Tissues were pre-incubated for 30 min with RPL554 (1, 10 and 100 μM) and then followed (without washing) by the construction of concentration responses curve to histamine (10 nM-1 mM) in the presence of RPL554.
Appropriate curve-fitting to a sigmoidal model was used to calculate the effect (E), the Emax and the concentration required to cause a 50% maximal effect (EC50). The equation used was log [agonist] vs. response, Variable slope, expressed as Y=Bottom+(Top−Bottom)/{1+10^[(Log EC50−X)*HillSlope]} (Motulsky and Christopoulos, 2004; Goodman et al., 2008). E/Emax was expressed as percentage of Emax elicited by the contractile agents; EC50 values were converted to pD2 for statistical analysis (Goodman et al., 2008) and the relaxant responses were expressed as a percentage of papaverine (500 μM) induced relaxation.

[4] = tested on: airways obstruction induced by bombesin in guinea pigs; experiment: Reversal of bombesin-induced airways obstruction (total lung resistance); format: in vivo
Method: (§1) Guinea pigs were anaesthetised and ventilated. Airway obstruction was induced by the intravenous administration of bombesin (2 μg/ml; 5 ml/hr). Bronchodilation was induced by the iv. administration of RPL554 alone at various doses, or in combination with sub maximal doses of atropine (2 μg/kg). […] Total lung resistance (RL) and mean arterial blood pressure were measured. Data are expressed as % reduction in airways obstruction or blood pressure.

[5] = Mean arterial blood pressure in bombesin-treated anaesthetised guinea pigs; format: in vivo; settings: RPL554 20 μg/kg iv (combination: + 2 μg/kg atropine)
Method: as §1

human isolated bronchi = experiment: Duration of action on EFS (3, 10, 25 Hz)-contracted human isolated bronchi, RPL554 and glycopyrronium at EC30; format: cell-based; settings: administered alone
Method: Bronchial rings from 6 patients were incubated in Krebs-Henseleit solution (37° C.) aerated with O2/CO2 (95/5%) under 0.5-1.0 g tension. The duration of action (30% maximal relaxation, EC30) of RPL554 and glycopyrronium, alone or in combination, was studied in tissue contracted with 3, 10 or 25 Hz electrical field stimulation (EFS). Bronchial tone was expressed as % of maximal response to papaverine (Emax) and the area under the curve (AUC) of the contractile response was assessed. Drug mixture effects were analyzed by Bliss Independence theory. Values (n=3) are mean±SEM.

[6] = tested on: human isolated bronchioles (small bronchi <1 mm diameter); experiment: Relaxation of small human bronchi in precision cut lung slices contracted with carbachol (EC70); format: cell-based; settings: for IC50: Homo sapiens, relaxation of bronchioles, CCh EC70, mean±SEM, n=3, read-out: pD2 (negative logarithm of IC50) (converted)
Method: Precision cut lung slices (PCLSs) from 6 patients were incubated in Krebs-Henseleit solution (37° C.) aerated with O2/CO2 (95:5%). The concentration response to RPL554 and glycopyrronium, administered alone and in combination at isoeffective concentrations, was assessed at sub-maximal contraction (70% maximum, EC70) induced by carbachol (CCh). […] Drug mixture effects were analyzed by Bliss Independence theory. Values (n=3) are mean±SEM.

In the case of `COc1cc2c(cc1OC)-c1cc(=Nc3c(C)cc(C)cc3C)n(CCNC(N)=O)c(=O)n1CC2` [RPL554, 9,10-Dimethoxy-2-(2,4,6-trimethylphenylimino)-3-(N-carbamoyl-2-aminoethyl)-3,4,6,7-tetrahydro-2H-pyrimido[6,1-a]isoquinolin-4-one], the Emax at 100 µM ([1]; Homo sapiens, RPL554 100 μM, 10 Hz EFS, read-out: Emax, inhibition of contractile response induced by EFS) is reported as 91.3 ± 3.37%, the “T1/2 (offset, time to evoke half of maximal relaxation)” value ([1]; RPL554 100 μM, 10 Hz EFS) is reported as 23.7 ± 12.3 min and the “Duration of inhibition of EFS contractile response after exposure” value ([1]; after termination of drug exposure) is reported as “at least 5 h”. It also gave an Emax ([2]; acetylcholine EC70 pre-contraction, percentage of papaverine (500 μM) relaxation, mean±SD, n=5, read-out: Emax (relaxation)) of 100%, an EC50 ([2]; relaxation of acetylcholine pre-contracted bronchi, n=5, read-out: EC50 (geomean, 95% CI)) of 21200 nM and an Emax at 1 µM ([3]; Homo sapiens, RPL554 1 uM, mean ± SEM, n=5) of 70.3 ± 2.7%. For the same compound, the Emax at 10 µM ([3]; Homo sapiens, RPL554 10 uM, mean ± SEM, n=5) was 58.1%, the pD2 of histamine ([3]; RPL554 1 uM) was 4.97 ± 0.07*** and the pD2 of histamine ([3]; RPL554 10 uM) was 4.98. The “Effect on contraction induced by histamine” value ([3]; RPL554 100 μM) was “completely abolished”, the “% Reduction in airways obstruction” value ([4]; RPL554 10 μg/kg iv (combination: + atropine 2 μg/kg)) was 7.4 + 1.9% and the “% Reduction in airways obstruction” value ([4]; RPL554 20 μg/kg iv (combination: + atropine 2 μg/kg)) was 24.6 + 4.3%. For the same compound, the “% Reduction in airways obstruction” value ([4]; RPL554 40 μg/kg iv (combination: + atropine 2 μg/kg)) was 55.2 + 6.2%, the “% Reduction in airways obstruction” value ([4]; RPL554 80 μg/kg iv (combination: + atropine 2 μg/kg)) was 65.1 + 5.3% and the “reduction in mean arterial blood pressure” value [5] was 37.3+6.7%. For the same compound, the “Time for which the effect was detectable” value (human isolated bronchi) was 4 h, the “Time of maximal relaxation” value (human isolated bronchi) was 160 ± 20 min and the “Effect on CCh-induced contraction” value [6] was “abolished”. The IC50 [6] was 1000 nM.

For `CN1[C@@H]2CC[C@H]1C[C@@H](OC(=O)C(CO)c1ccccc1)C2` (some centres unmarked) [atropine, reference compound], the EC50 ([2]; read-out: EC50 (geomean, 95% CI)) was 1180 nM, the Emax ([2]; read-out: Emax (relaxation)) was 66 ± 14% and the “reduction in airways obstruction” value ([4]; atropine 2 μg/kg alone) was 22.3 ± 4.9%.

For `C[N+]1(C)CCC(OC(=O)C(O)(c2ccccc2)C2CCCC2)C1` (centres unmarked) [glycopyrronium, reference compound], the “Time for which the effect was detectable” value (human isolated bronchi) was 4 h, the “Time of maximal relaxation” value (human isolated bronchi) was 50 ± 10 min and the “Effect on CCh-induced contraction” value [6] was “abolished”. It also gave an IC50 [6] of 0.631 nM.
